Experimental data: patent US8637516B2 (IRM LLC, priority 2010, dated 2014)

How the values were obtained:
[1] = target: T1, Ba/F3 cells transformed with human Tel-TrkA (Homo sapiens, UniProt P04629); experiment: Proliferation of Ba/F3 cells transformed with human Tel-TrkA (Ba/F3 Tel-TrkA); format: cell-based; details: Table 1; 48 hours, Bright Glo luminescence; read-out: Ba/F3 Tel-TrkA
T1 construct: expressed in transfected cells; host or cells: Ba/F3 murine hematopoietic progenitor cells (luciferase expressing); the other entry of the earlier key: ETV6 (P41212, Transcription factor ETV6)
Text: (§1) Compound dilutions were made in 384 well plates.
(§2) The emited luminiscence is quantified using ViewLux (PerkinElmer).

parental Ba/F3 cells = experiment: Proliferation of parental (untransformed, wt) Ba/F3 cells (BAF3/WT); format: cell-based, murine; details: Mus musculus, Table 1, parental cells with IL3, 48 hours
Method: as §1
Compounds were tested for their ability to inhibit the proliferation of wt Ba/F3 cells and Ba/F3 cells transformed with constitutively expressed luciferase reporter and BCR-ABL or Tel-FMS or other Tel fusion kinases (EGFR, JAK2, ALK, BMX, FGFR3, FGFR4, FGR2, FLT1, FLT3, IGF1R, INSR, KDR, KIT, LCK, LYN, MEK, MET, PDGFRα, PDGFRβ, RET, RON, ROS, SRC, SYK, TIE and TYRO) or BRafV600E. Parental Ba/F3 cells were maintained in media containing recombinant mouse IL3 and the kinase transformed Ba/F3 cells were maintained in media without IL-3. 7.5 nl of compounds were spotted to each well of 1536-well assay plates by Liquid handling System Echo 555 (Labcyte). 700 cells were then plated into each well of the assay plates in 7 uL culture media per well and compounds were tested at 0.17 nM to 10 uM in 3-fold serial dilutions. The cells were then incubated for 48 hours at 37° C. 3 uL of Bright-Glo® (Promega) was added to each well and the plates were read using ViewLux (PerkinElmer).
as §2

T1 sequence (P04629 510-796 limits assumed): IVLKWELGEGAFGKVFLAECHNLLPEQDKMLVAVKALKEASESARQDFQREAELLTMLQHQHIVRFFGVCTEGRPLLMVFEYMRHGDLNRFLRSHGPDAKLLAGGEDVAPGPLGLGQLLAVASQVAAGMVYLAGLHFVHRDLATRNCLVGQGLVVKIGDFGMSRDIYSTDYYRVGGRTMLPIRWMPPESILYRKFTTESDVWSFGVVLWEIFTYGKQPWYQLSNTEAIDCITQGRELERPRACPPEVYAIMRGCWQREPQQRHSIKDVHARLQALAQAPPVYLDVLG

Row | IC50 [1] | SMILES | IC50 (parental Ba/F3 cells)
1 | 614 nM | NC(=O)c1cnc2ccc(N3CCOCC3c3cccc(F)c3)nn12 (racemic) [X-16, 6-(3-(3-fluorophenyl)morpholino)imidazo[1,2-b]pyridazine-3-carboxamide] | > 10 µM
2 | 316 nM | Fc1cccc([C@H]2CCCN2c2ccc3ncc(Br)n3n2)c1 [X-1, (R)-3-bromo-6-(2-(3-fluorophenyl)pyrrolidin-1-yl)imidazo[1,2-b]pyridazine] | > 10 µM
3 | 268 nM | N#Cc1cnc2ccc(N3CCC[C@@H]3c3cccc(F)c3)nn12 [X-2, (R)-6-(2-(3-fluorophenyl)pyrrolidin-1-yl)imidazo[1,2-b]pyridazine-3-carbonitrile] | > 10 µM
4 | 957 nM | N#Cc1cnc2ccc(N3CCOCC3c3cccc(F)c3)nn12 (stereo not drawn) [X-3, 6-(3-(3-fluorophenyl)morpholino)imidazo[1,2-b]pyridazine-3-carbonitrile] | > 10 µM
5 | 155 nM | C[C@@H]1CN(c2ccc3ncc(C#N)n3n2)[C@@H](c2cccc(F)c2)C1(F)F [X-4, 6-((2S,4R)-3,3-difluoro-2-(3-fluorophenyl)-4-methylpyrrolidin-1-yl)imidazo[1,2-b]pyridazine-3-carbonitrile] | > 10 µM
6 | 117 nM | NC(=O)c1cnc2ccc(N3CCCC3c3cccc(F)c3)nn12 (stereo not drawn) [X-5, 6-(2-(3-fluorophenyl)pyrrolidin-1-yl)imidazo[1,2-b]pyridazine-3-carboxamide] | > 10 µM
7 | 51 nM | NC(=O)c1cnc2ccc(N3CCC[C@@H]3c3cccc(F)c3)nn12 [X-6] | > 10 µM
8 | 5 nM | NC(=O)c1cnc2ccc(N3C[C@@H](F)C[C@@H]3c3cccc(F)c3)nn12 [X-7, 6-((2R,4S)-4-fluoro-2-(3-fluorophenyl)pyrrolidin-1-yl)imidazo[1,2-b]pyridazine-3-carboxamide] | 3.56 µM
9 | 150 nM | [2H]C1(c2cccc(F)c2)CCCN1c1ccc2ncc(C(N)=O)n2n1 (stereo not drawn) [X-8, 6-(2-(3-fluorophenyl)pyrrolidin-1-yl)imidazo[1,2-b]pyridazine-3-carboxamide] | > 10 µM
10 | 12 nM | [2H][C@]1(c2cccc(F)c2)CCCN1c1ccc2ncc(C(N)=O)n2n1 [X-9] | > 10 µM
11 | 841 nM | [2H]C1([2H])CC[C@@H](c2cccc(F)c2)N1c1ccc2ncc(C(N)=O)n2n1 [X-10] | > 10 µM
12 | 25 nM | [2H]C1([2H])CC[C@H](c2cccc(F)c2)N1c1ccc2ncc(C(N)=O)n2n1 [X-11] | > 10 µM
13 | 105 nM | [2H]C1([2H])C(c2cccc(F)c2)N(c2ccc3ncc(C(N)=O)n3n2)C([2H])([2H])C1([2H])[2H] (stereo not drawn) [X-12] | > 10 µM
14 | 110 nM | [2H]C1([2H])N(c2ccc3ncc(C(N)=O)n3n2)C([2H])(c2cccc(F)c2)C([2H])([2H])C1([2H])[2H] (stereo not drawn) [X-13] | > 10 µM
15 | 13 nM | NC(=O)c1cnc2ccc(N3CC=C[C@@H]3c3cccc(F)c3)nn12 [X-15, (R)-6-(2-(3-fluorophenyl)-2,5-dihydro-1H-pyrrol-1-yl)imidazo[1,2-b]pyridazine-3-carboxamide] | 7.26 µM
16 | 328 nM | NC(=O)c1cnc2ccc(N3CCOC[C@H]3c3cccc(F)c3)nn12 [X-17, (R)-6-(3-(3-fluorophenyl)morpholino)imidazo[1,2-b]pyridazine-3-carboxamide] | > 10 µM
17 | 27 nM | NC(=O)c1cnc2ccc(N3CCCCC3c3cccc(F)c3)nn12 (stereo not drawn) [X-18] | > 10 µM
18 | 79 nM | NC(=O)c1cnc2ccc(N3CCCC[C@@H]3c3cccc(F)c3)nn12 [X-19] | > 10 µM
19 | 30 nM | O=C(NCCCCO)c1cnc2ccc(N3CCC[C@@H]3c3cccc(F)c3)nn12 [X-20] | > 10 µM
20 | 42 nM | CCNC(=O)c1cnc2ccc(N3CCCC3c3cccc(F)c3)nn12 (stereo not drawn) [X-21] | > 10 µM
21 | 47 nM | O=C(NCC1CCC1)c1cnc2ccc(N3CCC[C@@H]3c3cccc(F)c3)nn12 [X-22] | > 10 µM

Row | IC50 [1] | SMILES | IC50 (parental Ba/F3 cells)
22 | 92 nM | O=C(NCCC1CCCO1)c1cnc2ccc(N3CCC[C@@H]3c3cccc(F)c3)nn12 (stereo partly drawn) [X-23] | > 10 µM
23 | 236 nM | O=C(NCc1ccc(F)cc1)c1cnc2ccc(N3CCCC3c3cccc(F)c3)nn12 (stereo not drawn) [X-24] | > 10 µM
24 | 37 nM | O=C(NCc1cccc(N2CCOCC2)n1)c1cnc2ccc(N3CCC[C@@H]3c3cccc(F)c3)nn12 [X-25] | > 8.99 µM
25 | 85 nM | O=C(COc1ccc(F)cc1)Nc1cnc2ccc(N3CCC[C@@H]3c3cccc(F)c3)nn12 [X-26] | > 10 µM
26 | 17 nM | CCS(=O)(=O)N1CCC(NC(=O)c2cnc3ccc(N4CCC[C@@H]4c4cccc(F)c4)nn23)CC1 [X-27] | > 10 µM
27 | 112 nM | O=C(N[C@H]1CCCC[C@@H]1CO)c1cnc2ccc(N3CCC[C@@H]3c3cccc(F)c3)nn12 [X-28] | > 10 µM
28 | 239 nM | NS(=O)(=O)N1CCC(NC(=O)c2cnc3ccc(N4CCC[C@@H]4c4cccc(F)c4)nn23)CC1 [X-29, (R)-6-(2-(3-fluorophenyl)pyrrolidin-1-yl)-N-(1-sulfamoylpiperidin-4-yl)imidazo[1,2-b]pyridazine-3-carboxamide] | > 10 µM
29 | 31 nM | CS(=O)(=O)N1CC[C@H](NC(=O)c2cnc3ccc(N4CCC[C@@H]4c4cccc(F)c4)nn23)C1 [X-30] | > 10 µM
30 | 124 nM | CC(C)S(=O)(=O)N1CC[C@H](NC(=O)c2cnc3ccc(N4CCC[C@@H]4c4cccc(F)c4)nn23)C1 [X-31] | > 10 µM
31 | 19 nM | CC(C)S(=O)(=O)N1CCC(NC(=O)c2cnc3ccc(N4CCC[C@@H]4c4cccc(F)c4)nn23)CC1 [X-32] | > 10 µM
32 | 105 nM | CC(=O)O[C@@H](C)C(=O)N1CCC(NC(=O)c2cnc3ccc(N4CCC[C@@H]4c4cccc(F)c4)nn23)CC1 [X-33] | > 10 µM
33 | 76 nM | C[C@H](O)C(=O)N1CCC(NC(=O)c2cnc3ccc(N4CCC[C@@H]4c4cccc(F)c4)nn23)CC1 [X-34] | > 10 µM
34 | 26 nM | CCCS(=O)(=O)N1CCC(NC(=O)c2cnc3ccc(N4CCC[C@@H]4c4cccc(F)c4)nn23)CC1 [X-35] | > 10 µM
35 | 120 nM | CC1(C)CCC(CNC(=O)c2cnc3ccc(N4CCC[C@@H]4c4cccc(F)c4)nn23)O1 (stereo partly drawn) [X-36] | > 10 µM
36 | 137 nM | O=C(NCCc1ccc(F)cc1)c1cnc2ccc(N3CCC[C@@H]3c3cccc(F)c3)nn12 [X-37] | > 10 µM
37 | 196 nM | O=C(NCc1nc2ccccc2s1)c1cnc2ccc(N3CCC[C@@H]3c3cccc(F)c3)nn12 [X-38] | > 10 µM
38 | 14 nM | CC(C)NC(=O)c1cnc2ccc(N3CCC[C@@H]3c3cccc(F)c3)nn12 [X-39] | > 10 µM
39 | 951 nM | CCN(CC)CCCNC(=O)c1cnc2ccc(N3CCC[C@H]3c3cccc(F)c3)nn12 [X-40] | > 10 µM
40 | 527 nM | CC(C)(Cc1ccc(F)cc1)NC(=O)c1cnc2ccc(N3CCC[C@@H]3c3cccc(F)c3)nn12 [X-41] | 9 µM
41 | – | O=C(NCCF)c1cnc2ccc(N3C[C@@H](F)C[C@@H]3c3cccc(F)c3)nn12 [X-112, 6-((2R,4S)-4-fluoro-2-(3-fluorophenyl)pyrrolidin-1-yl)-N-(2-fluoroethyl)imidazo[1,2-b]pyridazine-3-carboxamide] | 5.45 µM
